Source: article PMC11661381, “Covalent-fragment screening identifies selective inhibitors of multiple Staphylococcus aureus serine hydrolases important for growth and biofilm formation” (Research Square, 2024)

Legend:
[1] = target: T1, recombinant FphH (rFphH) (Staphylococcus aureus, UniProt A0A0H2XJL0); assay: biochemical; conditions: for selectivity in the dose-dependent response assay (in words): three Fphs tested
T1 sequence (A0A0H2XJL0 1-246): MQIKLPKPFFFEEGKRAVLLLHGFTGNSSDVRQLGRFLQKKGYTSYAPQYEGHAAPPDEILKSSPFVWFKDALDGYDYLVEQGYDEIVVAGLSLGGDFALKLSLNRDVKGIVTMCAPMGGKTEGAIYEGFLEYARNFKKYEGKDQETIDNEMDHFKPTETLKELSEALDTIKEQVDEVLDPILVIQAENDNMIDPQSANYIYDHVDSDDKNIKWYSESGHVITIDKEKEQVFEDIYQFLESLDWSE
Method: (§1) Fluorogenic substrate assays were performed as previously described[9],[11],[12]. […] Turnover rates in the linear phase of the reaction (10–20 min) were calculated using GraphPad prism 10.0 software as RFU/min. Rates were normalized by subtracting background hydrolysis rates measured for each substrate in reaction buffer in the absence of protein.
(§2) For the screening, 8 μL of enzyme solution was pipetted into the assay plates containing 50 nL compound and allowed to incubate for one hour at room temperature. […] For four-point dose response plates, 2.5, 10, 25, 50 nL droplets were transferred to get […], 10, 25, 50 μM compound concentrations in the 384 well plates again using an Echo acoustic liquid handler as above. […] Calculations were done with GraphPad Prism 10.0 software. […] IC50 values were derived from the fitted curve.

[2] = system: Fph enzymes in live S. aureus cells (USA300); assay: Competition of FP-alkyne labeling in live S. aureus cells; type: cell-based, Staphylococcus aureus; conditions: 100 μM compound, live S. aureus cells
Method: One colony of each of S. aureus wild-type and transposon mutants fphB::Tn, fphE::Tn and fphH::Tn picked from growth on a Tryptic soya agar plate were inoculated in 5 mL of Tryptic soya broth (TSB). The overnight bacterial cultures were spun down at 5,000 g for 10 min and pellet was collected. The pellets were washed twice in 1X PBS buffer and resuspended in the same buffer. Cells were first preincubated with the indicated concentrations of inhibitors for 2hr at 37°C. The cells were washed twice with 1X PBS buffer. The resuspended pellets were incubated with Fluorophosphonate-alkyne (FP-alkyne) for 30 min at 37°C. Cells were washed again twice with 1X PBS buffer and resuspended in with 1X PBS and 0.1% Triton–X and lysed by beat beating at 4°C. Next, lysed cells (20 μL) were mixed with 2.16 μL of freshly prepared click mix (0.5 μL of 50 mM CuSO4 in H2O, 1.16 μL of 100 mM BTTAA in DMSO, and 0.5 μL of N3-Cy5 in DMSO) and 1.16 μL of 300 mM sodium ascorbate solution in H2O and incubated at 37 °C for 30 min. Next step, 20 μL of 4X SDS loading buffer was added in each sample and boiled at 100 °C for 10 min. The processed samples were allowed to cool and analyzed by SDS-PAGE (12%) running at 120 V in an electrophoresis chamber. Cy5 fluorescence was imaged using the Cy5 channel on a Typhoon 9410 Imager (Amersham Biosciences).

[3] = target: T2, recombinant FphE (rFphE) (Staphylococcus aureus, UniProt Q2FDS6); assay: biochemical; conditions: from dose response IC50 values
T2 construct: otherwise full-length FphE (Uniprot ID Q2FDS6) and FphH (A0A0H2XJL0) proteins; His6 (3C-cleavable, pETNKI-his-3C-LIC vector) (N); made in house; E. coli is inferred from the pET28a-type vector, IPTG induction and LB/kanamycin
T2 sequence (Q2FDS6 1-276): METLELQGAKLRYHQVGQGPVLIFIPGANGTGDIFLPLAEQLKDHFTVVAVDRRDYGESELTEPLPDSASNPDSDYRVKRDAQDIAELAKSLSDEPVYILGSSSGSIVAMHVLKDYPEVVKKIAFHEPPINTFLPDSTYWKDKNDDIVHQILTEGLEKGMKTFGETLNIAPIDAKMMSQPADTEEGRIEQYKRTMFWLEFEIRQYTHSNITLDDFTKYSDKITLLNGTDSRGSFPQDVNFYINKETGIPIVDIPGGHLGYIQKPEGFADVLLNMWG
Method: as §1, §2

[4] = Stability in aqueous assay buffer by LC/MS; type: physicochemical
Source text: This shift was not observed in the acidic mass spectrometry buffer (0.1% formic acid (FA) in H2O as buffer A, and 0.1% FA in acetonitrile (ACN) as buffer B; SI details). We therefore reasoned that the molecule likely reacts to release the fluoride under neutral pH conditions (Fig. 3c). Given the presence of the amide nitrogen in close proximity to the sulfur (VI) atom we reasoned that it likely produces a saccharine-like structure by a cyclization to release the fluorine atom[31]. This would create a molecule that could then be ring-opened by attack by the active site serine on the sulfur center, resulting in irreversible protein modification. […] We were able to purify the non-cyclized OSF-fragment, X13d under acidic conditions, as well as the cyclized OSF-fragment, X13e. We observed a clear mass difference of 20 Da between the two purified species by LC/MS analysis.

[5] = target: T3, recombinant FphB (rFphB) (Staphylococcus aureus, UniProt A0A0H2XJG5); type: biochemical; conditions: enzyme inhibition assay
T3 construct: made in house
Method: as §1, §2

[6] = target: T4, rFphH (Staphylococcus aureus, UniProt A0A0H2XJL0); assay: FP-Cy5 active site labeling of recombinant protein, rFphH; type: binding; conditions: 500 nM rFphH
T4 construct: otherwise full-length FphE (Uniprot ID Q2FDS6) and FphH (A0A0H2XJL0) proteins; His6 (3C-cleavable, pETNKI-his-3C-LIC vector) (N); made in house; E. coli is inferred from the pET28a-type vector, IPTG induction and LB/kanamycin
T4 sequence (A0A0H2XJL0 1-246): T1 sequence (A0A0H2XJL0 1-246)
Method: For activity-based protein labeling experiments, 500 nM of rFphB, rFphE and rFphH in 1X PBS and 0.1% Triton–X were preincubated with different concentrations of inhibitors or DMSO for 2hr at room temperature, followed by adding 300 nM of fluorophosphonate (FP) alkyne and incubated for 30 min at room temperature. Next, 20 μL of the reaction volume were mixed with 2.16 μL of freshly prepared click mix (0.5 μL of 50 mM CuSO4 in H2O, 1.16 μL of 100 mM BTTAA in DMSO, and 0.5 μL of N3-Cy5 in DMSO) and 1.16 μL of 300 mM sodium ascorbate solution in H2O. Samples were incubated at 37°C for 30 min, boiled in SDS loading buffer and analyzed by SDS–PAGE. Cy5 fluorescence was imaged using the Cy5 channel on a Typhoon 9410 Imager (Amersham Biosciences).

[7] = system: Fph enzymes in S. aureus USA300 WT lysates; assay: Competition of FP labeling in S. aureus lysates; type: binding, Staphylococcus aureus; conditions: 120 min preincubation
Method: Figure 3 Biochemical characterization of fluorosulfate-based fragments. […] (d) LC/MS profiles for X13d and X13e in LC/MS buffer or aqueous buffer. (e) Proposed reaction mechanism of X13d or X13e binding to rFphH, Fluorescence SDS-PAGE image of rFphH for direct visualization of labelling by clickable probes X13d and X13e with Cy5-azide. (f) Native mass spectrometry (MS) characterization of 1μM rFphH alone or after 1hr incubation with 10 μM X13d or X13e. […] (h) Competition of FP-Cy5 labeling of S. aureus lysates. […] The indicated Fph transposon mutants (::Tn) lysates are included to highlight the location of the three enzymes in the gel. All data shown are representative of three independent experiments.
Cells were then lysed and click labeled with sulfo-Cy5 azide and analyzed by SDS-PAGE. […] We hypothesized this lack of competition may have been due to the inability to permeate the cell membranes. For bacteria, the permeability is influenced by the polarity of the compound, measured by clogP. Drugs targeting Gram-negative bacteria show higher polarities (clogP = − 0.1) compared to those targeting Gram-positive bacteria (clogP = 2.1)[32],[33]. […] Overall, this electrophile has a unique mechanism of binding with the active site serine of FphH and may be a valuable new electrophile class to target other serine hydrolases.

[8] = target: T5, rFphE (Staphylococcus aureus, UniProt Q2FDS6); assay: Mass spectrometry of rFphE labeling; type: binding
T5 construct: otherwise full-length FphE (Uniprot ID Q2FDS6) and FphH (A0A0H2XJL0) proteins; His6 (3C-cleavable, pETNKI-his-3C-LIC vector) (N); made in house; E. coli is inferred from the pET28a-type vector, IPTG induction and LB/kanamycin
T5 sequence (Q2FDS6 1-276): T2 sequence (Q2FDS6 1-276)

[9] = target: T4, rFphH; assay: Intact protein LC-MS of rFphH with inhibitors; type: binding; conditions: 1 μM rFphH, 10 μM probe, 1hr
Method: Next, 10 μL of the labeled sample was injected and analyzed by LC-MS. […] Protein labeling efficiency was quantified by UV. The acquired mass of protein was deconvoluted using the deconvolution software in Agilent Bioanalysis Software package.

[10] = target: the molecule itself; assay: crystal structure

T3 sequence (A0A0H2XJG5 entry or part of it): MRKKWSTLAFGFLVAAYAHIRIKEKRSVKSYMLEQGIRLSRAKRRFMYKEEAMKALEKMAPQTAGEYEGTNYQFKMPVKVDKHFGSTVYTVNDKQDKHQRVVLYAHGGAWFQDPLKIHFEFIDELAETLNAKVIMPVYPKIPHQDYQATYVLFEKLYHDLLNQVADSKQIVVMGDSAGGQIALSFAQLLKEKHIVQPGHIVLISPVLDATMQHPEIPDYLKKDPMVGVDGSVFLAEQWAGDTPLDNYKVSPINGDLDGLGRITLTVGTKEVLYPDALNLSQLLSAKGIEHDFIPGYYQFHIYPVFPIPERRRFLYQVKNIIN

CC1(C)OB(c2cnc3c(c2)CC(=O)N3)OC1(C)C [AF22]
selectivity in the dose-dependent response assay (in words) [1]: quite selective for rFphH

CN1CCCN(C(=O)c2ccc(S(=O)(=O)F)cc2)c2ccccc21 [L17]
IC50 ([1]; IC50 (μM) FphH, 5 nM rFphH, 1 hr preincubation, 0.01–50 μM, N.D. = IC50 could not be determined due to incomplete inhibition at the highest concentration tested): 3 µM

Cc1cc(B2OC(C)(C)C(C)(C)O2)ccc1S(N)(=O)=O [Q41]
selectivity in the dose-dependent response assay (in words) [1]: quite selective for rFphH

COc1cc(OC)cc(B(O)O)c1 [W41]
competition of FP labeling in live cells (in words) [2]: unable to block FP labeling of any of the Fph enzymes | selectivity for rFphE over rFphH [3]: ~100 fold

Cc1ccc(OS(=O)(=O)F)c(C(=O)Nc2ccncc2)c1 [X13]
mass shift upon incubation in aqueous buffer ([4]; 1X Phosphate buffer saline pH 7.5, 60 min, absence of protein): 20 Da | inhibition of rFphB (in words) [5]: no activity against rFphB | competition of FP-Cy5 labeling of rFphH (in words) [6]: dose-dependent competition of protein labeling | competition of FP labeling in live cells (in words) [2]: Neither of the compounds competed with FP labeling in intact cells | selectivity (higher potency) for rFphH over rFphE ([1]; from dose response IC50 values): ~100 fold | competition of FP labeling in lysates (in words) [7]: dose-dependently competed with FP labeling of rFphH as well as rFphE at higher concentrations | labeling of rFphE by mass-spectrometry (in words) [8]: No labeling

O=C(Nc1ccncc1)c1ccccc1OS(=O)(=O)F [X13a]
competition of FP-Cy5 labeling of rFphH (in words) [6]: dose-dependent competition of protein labeling | competition of FP labeling in live cells (in words) [2]: Neither of the compounds competed with FP labeling in intact cells | competition of FP labeling in lysates (in words) [7]: dose-dependently competed with FP labeling of rFphH as well as rFphE at higher concentrations

C#Cc1cnccc1NC(=O)c1ccccc1OS(=O)(=O)F [X13d]
conversion in pH 7.5 buffer (in words) ([4]; pH 7.5 buffer): rapidly converted to the cyclic version | mass shift of rFphH (in words) [9]: produced the expected mass shift

C#Cc1cnccc1N1C(=O)c2ccccc2OS1(=O)=O [X13e]
mass shift of rFphH (in words) [9]: produced the expected mass shift

B1: FphE (fluorophosphonate-binding hydrolase E), S. aureus USA300, crystallography construct (enzyme)
chain: GPGMETLELQGAKLRYHQVGQGPVLIFIPGANGTGDIFLPLAEQLKDHFTVVAVDRRDYGESELTEPLPDSASNPDSDYRVKRDAQDIAELAKSLSDEPVYILGSSSGSIVAMHVLKDYPEVVKKIAFHEPPINTFLPDSTYWKDKNDDIVHQILTEGLEKGMKTFGETLNIAPIDAKMMSQPADTEEGRIEQYKRTMFWLEFEIRQYTHSNITLDDFTKYSDKITLLNGTDSRGSFPQDVNFYINKETGIPIVDIPGGHLGYIQKPEGFADVLLNMWG
notes: also called rFphE; source: E. coli expression from pet28a-(pETNKI-his-3C-LIC-kan), purified (Ni-NTA, size exclusion); tag cleaved with 3C protease
binding result [10]: binds
